From ChEMBL document CHEMBL3137667, “[Drug-induced liver injury; fourteenth updated edition of the bibliographic database of liver injuries and related drugs]” (Gastroenterol Clin Biol, 2004)

Key:
[1] = human
[2] = human, serum
[3] = human; remark: listed apart in the source
[4] = human; remark: listed apart in the source
[5] = human; remark: listed apart in the source
[6] = human; remark: listed apart in the source
[7] = human; remark: listed apart in the source
[8] = Highest frequency of moderate liver toxicity observed during clinical trials, expressed as a percentage. [column '% BIOL' in source]; conditions: human
[9] = human, serum; remark: listed apart in the source
[10] = Highest frequency of acute liver toxicity observed during clinical trials, expressed as a percentage. [column '% AIGUE' in source]; conditions: human
[11] = human; remark: listed apart in the source
[12] = human; remark: listed apart in the source
[13] = human; remark: listed apart in the source
[14] = human, serum, 4383 h
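For Hepatotoxicity (association with vascular disease) in this document: count of indexed literature references reporting vascular liver injury in humans, e.g. peliosis hepatitis, hepatic veno-occlusive disease or Budd-Chiari syndrome.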
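For Hepatotoxicity (benign tumour) in this document: value is a count of indexed literature references citing a benign tumour confirmed by histopathology.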
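For Hepatotoxicity (choleostasis) in this document: human cholestatic liver injury, shown by histopathology or by peak ALT or AST elevation over alkaline phosphatase ratio below 2, value counts indexed literature reports.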
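For Hepatotoxicity (chronic liver disease) in this document: chronic liver injury confirmed by histopathology or persistently raised serum aminotransferase activity beyond 6 months, value given as the count of indexed literature references.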
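For Hepatotoxicity (cirrhosis) in this document: value is a count of indexed literature references reporting cirrhosis confirmed by histopathology.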
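For Hepatotoxicity (cytolytic) in this document: human cytolytic liver injury, shown by histopathology or by a ratio above 5 of peak ALT or AST elevation to alkaline phosphatase elevation, value counts indexed references.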
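For Hepatotoxicity (granulomatous hepatitis) in this document: value is a count of indexed literature references reporting granulomatous liver disease confirmed by histopathology.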
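For Hepatotoxicity (malignant tumour) in this document: malignant tumour confirmed by histopathology, value gives the count of indexed literature references reporting it.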
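For Hepatotoxicity (severe hepatitis) in this document: human clinical data: severe hepatitis, meaning potentially life-threatening liver failure or clinically observed cases, the value counts how many indexed literature references report it.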
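For Hepatotoxicity (steatosis) in this document: steatosis confirmed by histopathology, value is the count of indexed references.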

COc1ccc(C(=O)N2CCN(c3ccc4c(c3)CCC(=O)N4)CC2)cc1OC [VESNARINONE]
Hepatotoxicity (association with vascular disease) [1]: 0 | Hepatotoxicity (acute) [2]: 0 | Hepatotoxicity (malignant tumour) [3]: 0 | Hepatotoxicity (granulomatous hepatitis) [4]: 0 | Hepatotoxicity (cytolytic) [5]: 0 | Hepatotoxicity (steatosis) [6]: 0 | Hepatotoxicity (choleostasis) [7]: 0 | Hepatotoxicity (moderate) [8]: 0.4% | Hepatotoxicity (moderate) [9]: 1 | Hepatotoxicity (acute) [10]: 0% | Hepatotoxicity (severe hepatitis) [11]: 0 | Hepatotoxicity (cirrhosis) [12]: 0 | Hepatotoxicity (benign tumour) [13]: 0 | Hepatotoxicity (chronic liver disease) [14]: 0

CO/N=C(\C(=O)N[C@@H]1C(=O)N2C(C(=O)OCOC(=O)C(C)(C)C)=C(Cn3nnc(C)n3)CS[C@H]12)c1csc(N)n1
Hepatotoxicity (association with vascular disease) [1]: 0 | Hepatotoxicity (acute) [2]: 0 | Hepatotoxicity (malignant tumour) [3]: 0 | Hepatotoxicity (granulomatous hepatitis) [4]: 0 | Hepatotoxicity (cytolytic) [5]: 0 | Hepatotoxicity (steatosis) [6]: 0 | Hepatotoxicity (choleostasis) [7]: 0 | Hepatotoxicity (moderate) [8]: 3.3% | Hepatotoxicity (moderate) [9]: 9 | Hepatotoxicity (acute) [10]: 0% | Hepatotoxicity (severe hepatitis) [11]: 0 | Hepatotoxicity (cirrhosis) [12]: 0 | Hepatotoxicity (benign tumour) [13]: 0 | Hepatotoxicity (chronic liver disease) [14]: 0

CC(C)c1nc(N(C)S(C)(=O)=O)nc(-c2ccc(F)cc2)c1/C=C/[C@@H](O)C[C@@H](O)CC(=O)O [ROSUVASTATIN]
Hepatotoxicity (association with vascular disease) [1]: 0 | Hepatotoxicity (acute) [2]: 1 | Hepatotoxicity (malignant tumour) [3]: 0 | Hepatotoxicity (granulomatous hepatitis) [4]: 0 | Hepatotoxicity (cytolytic) [5]: 1 | Hepatotoxicity (steatosis) [6]: 0 | Hepatotoxicity (choleostasis) [7]: 0 | Hepatotoxicity (moderate) [8]: 0% | Hepatotoxicity (moderate) [9]: 0 | Hepatotoxicity (acute) [10]: 0.1% | Hepatotoxicity (severe hepatitis) [11]: 0 | Hepatotoxicity (cirrhosis) [12]: 0 | Hepatotoxicity (benign tumour) [13]: 0 | Hepatotoxicity (chronic liver disease) [14]: 0

CCOC(=O)[C@H](CCc1ccccc1)N[C@@H](C)C(=O)N1Cc2ccccc2C[C@H]1C(=O)O
Hepatotoxicity (association with vascular disease) [1]: 0 | Hepatotoxicity (acute) [2]: 1 | Hepatotoxicity (malignant tumour) [3]: 0 | Hepatotoxicity (granulomatous hepatitis) [4]: 0 | Hepatotoxicity (cytolytic) [5]: 0 | Hepatotoxicity (steatosis) [6]: 0 | Hepatotoxicity (choleostasis) [7]: 0 | Hepatotoxicity (moderate) [8]: 10% | Hepatotoxicity (moderate) [9]: 3 | Hepatotoxicity (acute) [10]: 0% | Hepatotoxicity (severe hepatitis) [11]: 0 | Hepatotoxicity (cirrhosis) [12]: 0 | Hepatotoxicity (benign tumour) [13]: 0 | Hepatotoxicity (chronic liver disease) [14]: 0

O=C(O)C[C@H](O)C[C@H](O)/C=C/c1c(C2CC2)nc2ccccc2c1-c1ccc(F)cc1 [PITAVASTATIN]
Hepatotoxicity (association with vascular disease) [1]: 0 | Hepatotoxicity (acute) [2]: 0 | Hepatotoxicity (malignant tumour) [3]: 0 | Hepatotoxicity (granulomatous hepatitis) [4]: 0 | Hepatotoxicity (cytolytic) [5]: 0 | Hepatotoxicity (steatosis) [6]: 0 | Hepatotoxicity (choleostasis) [7]: 0 | Hepatotoxicity (moderate) ([8]; Liver): 1.7% | Hepatotoxicity (moderate) [9]: 1 | Hepatotoxicity (acute) ([10]; Liver): 0% | Hepatotoxicity (severe hepatitis) ([11]; Liver): 0 | Hepatotoxicity (cirrhosis) [12]: 0 | Hepatotoxicity (benign tumour) [13]: 0 | Hepatotoxicity (chronic liver disease) [14]: 0

C[C@H]([C@](O)(Cn1cncn1)c1ccc(F)cc1F)S(C)(=O)=O [GENACONAZOLE]
Hepatotoxicity (association with vascular disease) [1]: 0 | Hepatotoxicity (acute) [2]: 0 | Hepatotoxicity (malignant tumour) [3]: 0 | Hepatotoxicity (granulomatous hepatitis) [4]: 0 | Hepatotoxicity (cytolytic) [5]: 0 | Hepatotoxicity (steatosis) [6]: 0 | Hepatotoxicity (choleostasis) [7]: 0 | Hepatotoxicity (moderate) [8]: 33.3% | Hepatotoxicity (moderate) [9]: 1 | Hepatotoxicity (acute) [10]: 0% | Hepatotoxicity (severe hepatitis) [11]: 0 | Hepatotoxicity (cirrhosis) [12]: 0 | Hepatotoxicity (benign tumour) [13]: 0 | Hepatotoxicity (chronic liver disease) [14]: 0

Nc1ccc(S(=O)(=O)Nc2nccs2)cc1 [SULFATHIAZOLE]
Hepatotoxicity (association with vascular disease) [1]: 0 | Hepatotoxicity (acute) [2]: 0 | Hepatotoxicity (malignant tumour) [3]: 0 | Hepatotoxicity (granulomatous hepatitis) ([4]; Liver): 0 | Hepatotoxicity (cytolytic) ([5]; Liver): 0 | Hepatotoxicity (steatosis) [6]: 0 | Hepatotoxicity (choleostasis) ([7]; Liver): 0 | Hepatotoxicity (moderate) ([8]; Liver): 0% | Hepatotoxicity (moderate) [9]: 1 | Hepatotoxicity (acute) ([10]; Liver): 0% | Hepatotoxicity (severe hepatitis) ([11]; Liver): 0 | Hepatotoxicity (cirrhosis) [12]: 0 | Hepatotoxicity (benign tumour) [13]: 0 | Hepatotoxicity (chronic liver disease) [14]: 0

CCCC[C@@H]1CC(=O)[C@]2(O)O[C@@H]3[C@@H](NC)[C@@H](O)[C@@H](NC)[C@H](O)[C@H]3O[C@@H]2O1 [TROSPECTOMYCIN]
Hepatotoxicity (association with vascular disease) [1]: 0 | Hepatotoxicity (acute) [2]: 0 | Hepatotoxicity (malignant tumour) [3]: 0 | Hepatotoxicity (granulomatous hepatitis) [4]: 0 | Hepatotoxicity (cytolytic) [5]: 0 | Hepatotoxicity (steatosis) [6]: 0 | Hepatotoxicity (choleostasis) [7]: 0 | Hepatotoxicity (moderate) [8]: 33.3% | Hepatotoxicity (moderate) [9]: 2 | Hepatotoxicity (acute) [10]: 0% | Hepatotoxicity (severe hepatitis) [11]: 0 | Hepatotoxicity (cirrhosis) [12]: 0 | Hepatotoxicity (benign tumour) [13]: 0 | Hepatotoxicity (chronic liver disease) [14]: 0

CC(C)(Oc1ccc(Cl)cc1)C(=O)OCCOC(=O)c1cccnc1 [ETOFIBRATE]
Hepatotoxicity (association with vascular disease) [1]: 0 | Hepatotoxicity (acute) [2]: 0 | Hepatotoxicity (malignant tumour) [3]: 0 | Hepatotoxicity (granulomatous hepatitis) [4]: 0 | Hepatotoxicity (cytolytic) [5]: 0 | Hepatotoxicity (steatosis) [6]: 0 | Hepatotoxicity (choleostasis) [7]: 0 | Hepatotoxicity (moderate) [8]: 0% | Hepatotoxicity (moderate) [9]: 1 | Hepatotoxicity (acute) [10]: 0% | Hepatotoxicity (severe hepatitis) [11]: 0 | Hepatotoxicity (cirrhosis) [12]: 0 | Hepatotoxicity (benign tumour) [13]: 0 | Hepatotoxicity (chronic liver disease) [14]: 0

O=C(CCCN1CCN(c2ccc(F)cc2)CC1)NC1c2ccccc2CSc2ccccc21 (centres undefined) [MONATEPIL]
Hepatotoxicity (association with vascular disease) [1]: 0 | Hepatotoxicity (acute) [2]: 0 | Hepatotoxicity (malignant tumour) [3]: 0 | Hepatotoxicity (granulomatous hepatitis) [4]: 0 | Hepatotoxicity (cytolytic) [5]: 0 | Hepatotoxicity (steatosis) [6]: 0 | Hepatotoxicity (choleostasis) [7]: 0 | Hepatotoxicity (moderate) [8]: 4.5% | Hepatotoxicity (moderate) [9]: 1 | Hepatotoxicity (acute) [10]: 0% | Hepatotoxicity (severe hepatitis) [11]: 0 | Hepatotoxicity (cirrhosis) [12]: 0 | Hepatotoxicity (benign tumour) [13]: 0 | Hepatotoxicity (chronic liver disease) [14]: 0

NCC[C@H](O)C(=O)N[C@@H]1C[C@H](N)[C@@H](O[C@H]2O[C@H](CN)[C@@H](O)[C@H](O)[C@H]2O)[C@H](O)[C@H]1O[C@H]1O[C@H](CO)[C@@H](O)[C@H](N)[C@H]1O [AMIKACIN]
Hepatotoxicity (association with vascular disease) [1]: 0 | Hepatotoxicity (acute) [2]: 0 | Hepatotoxicity (malignant tumour) [3]: 0 | Hepatotoxicity (granulomatous hepatitis) [4]: 0 | Hepatotoxicity (cytolytic) [5]: 0 | Hepatotoxicity (steatosis) [6]: 0 | Hepatotoxicity (choleostasis) [7]: 0 | Hepatotoxicity (moderate) [8]: 15.3% | Hepatotoxicity (moderate) [9]: 6 | Hepatotoxicity (acute) [10]: 0% | Hepatotoxicity (severe hepatitis) [11]: 0 | Hepatotoxicity (cirrhosis) [12]: 0 | Hepatotoxicity (benign tumour) [13]: 0 | Hepatotoxicity (chronic liver disease) [14]: 0
